# Data from patent US6372493B1, “Hormone-secreting cells maintained in long-term culture” (Pacific Biomedical Research, Inc. [Cell Mart, Inc.], priority 1991, dated 2002).
# How the values were obtained:
# [1] = system: Human pancreas cells at passage generation 47; assay: Effect of amino acids on glucose stimulated insulin secretion (Example 20); type: cell-based; settings: 90 minutes
# Procedure: Human pancreas cells at passage generation 47, were prepared for the experiment as described in Example 17 above. The cells were incubated in 6 parts PDM plus 1 part DMSS medium at a concentration of 10^5 cells/ml, at various concentrations of glucose. Alanine (10 mM) or arginine(20 mM) were added, and the cells were incubated for 90 minutes, at which time samples were collected for assay of insulin content.
# [2] = system: daughter-islet cells from human pancreas whole islets; assay: Indirect immunofluorescence for insulin after glucose stimulation of daughter-islets (Example 22); type: cell-based; settings: 12 mM glucose 3 hours
# Procedure: The first assessment was made after three months in culture at the eighth passage generation and the second assessment was made after the sixteenth passage generation and eight months in continuous culture. On the average the daughter-islet cells were passed every 10-14 days. To test the response of the cells to glucose stimulation, the cultures were given a glucose poor basal medium. The basal medium as set forth in Formula VI below was a RPMI-1640 derivative containing 2 mM glucose. The cells remained in glucose poor medium for a period of 4 hours. The cells were first washed five times for 10 minutes each in the Formula VI medium prior to a 3 hour final incubation in the same basal medium. Subsequently the cultures were placed in the same medium, except that its total glucose concentration was 12 mM (instead of 2 mM glucose) for 3 hours and then prepared for indirect immunofluorescence to detect the presence of insulin.
# The materials and partial protocol used in this example were as follows:
# 1. Primary antibody: Guinea pig monoclonal anti-insulin (human) [Peninsula Laboratories, Inc. IFK-7303G] working dilution used was 1:200.
# 2. Secondary antibody: Rabbit anti-guinea pig IgG (whole molecule) affinity isolated—TRITC conjugate (Sigma T-7153).
# 3. Negative control: 1 ml of the primary antiserum of the Guinea pig monoclonal anti-insulin (human) was added to 50 μgm of synthetic human insulin (Peninsula Laboratories, Inc.).
# 4. Nuclear counterstain: Hoechst 33258 (Sigma Chemical Co.), 0.1% was used.
# The procedures followed for fixing the cells and the amount of primary and secondary antibodies used are given in detail in the description of procedures for Example 23. The control experiment was exposure only to the glucose poor basal medium.
# [3] = system: cultured pancreatic islet cells (daughter-islets); assay: Immunofluorescence for insulin after BUDR labelling and glucose stimulation (Example 23); type: cell-based, human; settings: 12 mM glucose 6 hours
# Procedure: The tests were done on the same long term cultured daughter-islets described in Example 22, after 3 months of culture (8 passage generations) and after 8 months of cell culture (16 passage generations). Cultures of the daughter-islets were exposed to 30 μgm/ml BUDR for 5 days. The cultures were then placed in normal culture medium (OCZEM-M) for another 5 days. Cultures were then given the same glucose poor basal medium described in Formula VI for 4 hours. Subsequently medium containing 12 mM glucose, described in Example 22, was provided for 6 hours. Cells were immediately fixed and prepared for immunofluorescence. A FITC conjugated secondary antibody to detect BUDR incorporation during DNA synthesis and a TRITC conjugated secondary antibody to detect insulin synthesis in response to glucose stimulation were used according to the following protocol.
# d. Cell preparation used procedures to swell the nucleus and preferentially fix the chromosomes in order to maximize the ability to detect BUDR incorporation. The procedures are commonly used to prepare human embryonic cells for florescence in situ hybridization (FISH).
# 9. Primary antibodies were added, 100 ul @ and the slides were incubated in a moist chamber for 18 hours at 20° C.
# 11. Secondary antibodies were added to EVERY slide (including the negative controls) in very dim light, 100 ul @ and then the slides were incubated in the dark for 60 minutes at room temperature.
# 16. After 24 hours the preparations were photographed with Kodak Ektar 100 using Zeiss optics and fluorescence filters (No 2 for Hoechst, No 9 for FITC and No 15 for TRITC).
# [4] = system: human pancreas whole islets; assay: Insulin secretion of cultured whole islets in response to glucose, RIA (Example 24); type: cell-based; settings: +10 mM Glucose (Total 12 mM Glucose)
# Procedure: The whole islets were isolated and obtained as described in Example 22. Prior to this experiment they had been in culture for 3¾ months in OCZEM-M and were passage generation 11. Insulin secretion was measured by RIA (Diagnostic Products Corporation).
# The cultured whole islets were washed in basal medium [RPMI (5×@ 20 minutes) before the experiment. Then individual whole islets were cultured in the basal level medium containing 2 mM glucose described in Example 22 for 3½ hours (1 islet/1 ml). Each individual islet was then transferred to 1 ml of the basal medium containing an additional 10 mM glucose (to yield a total glucose concentration of 12 mM) and cultured for another 3½ hours. A comparison of the resulting amounts of secreted insulin is shown below in Table 16. Each individual islet was placed in a separate culture dish after the experiment so that future tests on insulin secretion could be measured on identified islets.
# daughter-islet cells = assay: Daughter islet cell insulin secretion in response to glucose, RIA (Example 25); type: cell-based, human; settings: for Secreted Insulin: 17 months of culture, one hour
# Procedure: The daughter-islets were obtained as progeny arising through cell division from islet cells in the cultured whole islets obtained as isolates from human pancreases. After 17 months of culture the daughter-islet cells were analyzed for their ability to secrete insulin in response to physiological levels of glucose. Formula VI, as described in Examples 22 and 24 with designated glucose concentrations of 2 mM (Basal level), 7.6 mM (Maintence level), 12 mM and 22 mM was used for the experiment. Care was taken to control the osmolarity of each medium to the range of 260-268 mOsm so that no strong osmotic shock was administered to the daughter-islet cells. The cells were washed 5 times, at 20 minutes each wash, with the basal level medium (2 mM glucose level) before the experiment. Each group of 5 daughter-islet was placed in 1 ml of the test medium and incubated at 37° C., with 5% CO2/5% O2/90% N2, for one hour. The medium was collected for assay and new medium containing 7.6 mM glucose was added. The one hour incubation, using the same conditions was then repeated. Those steps were repeated for the challenges with medium containing 12 mM and 22 mM glucose. Analysis of insulin secretion levels was done by RIA as described in Example 24.
smiles,measurement,setting,value
"O=C[C@H](O)[C@@H](O)[C@H](O)[C@H](O)CO [glucose, D(+)glucose]","insulin secretion, control (glucose alone)","[1]; total 1 mM glucose, 10^5 cells/ml",91
same,"insulin secretion, control (glucose alone)",[1]; total 2 mM glucose,108
same,"insulin secretion, control (glucose alone)",[1]; total 6 mM glucose,112
same,"insulin secretion, control (glucose alone)",[1]; total 11 mM glucose,116
same,"insulin secretion, control (glucose alone)",[1]; total 16 mM glucose,128
same,"insulin secretion, control (glucose alone)",[1]; total 22 mM glucose,115
same,% of insulin positive cells,[2]; 3 mo. culture (8th passage generation),88%
same,# cells positive for insulin (anti-insulin-RITC),"[2]; 3 mo. culture (8th passage generation), 388 cells screened",343
same,% of insulin positive cells,[2]; 8 mo. culture (16th passage generation),87%
same,# cells positive for insulin (anti-insulin-RITC),"[2]; 8 mo. culture (16th passage generation), 195 cells screened",170
same,Insulin positive,[3]; 8th passage generation (3 mo. culture),86%
same,Insulin positive (number of cells),"[3]; 8th passage generation (3 mo. culture), 204 cells analyzed",175
same,Insulin positive,[3]; 16th passage generation (8 mos. culture),90%
same,Insulin positive (number of cells),"[3]; 16th passage generation (8 mos. culture), 187 cells analyzed",168
same,Secreted Insulin,[4]; 2 Medium islets @,162.2 uIU/ml/hr
same,Secreted Insulin,[4]; 2 Very small islets @ (<0.5 μm),84.5 uIU/ml/hr
same,Secreted Insulin,"[4]; Extra large islet (>250 μm), 3½ hours",86.7 uIU/ml/hr
same,Secreted Insulin,[4]; Large islet (˜150 μm),149.4 uIU/ml/hr
same,Secreted Insulin,daughter-islet cells; 12 mM glucose,38.6 μIU/ml/hour/10^3 cells
same,Secreted Insulin,daughter-islet cells; 22 mM glucose,144.5 μIU/ml/hour/10^3 cells
same,maximal response relative to the basal level,daughter-islet cells; basal level 0.3 at 2 mM glucose,482 times
